Five compounds from patent US12133855B2, “Lipid-like nanocomplexes and uses thereof” (Trustees of Tufts College, priority 2018, dated 2024) can be followed below.

A short description of data set [1]: TEM size of lipidoid nanoparticles. Type of data set: physicochemical. The note with it: TEM images of LNPs. As for the experimental part:
All chemicals used for lipidoids synthesis were purchased from Sigma-Aldrich without further purification unless otherwise noted. (−30)GFP-Cre recombinase, S. pyogenes Cas9 (spCas9) and sgRNA were generated following the protocols reported in Wang at al., Proc. Natl. Acad. Sci. USA, 2016, 113, 2868-2873 (“Wang”). HeLa-DsRed and GFP-HEK cells were cultured in Dulbecco's modified eagle's medium (DMEM, Sigma-Aldrich) with 10% fetal bovine serum (FBS, Sigma-Aldrich) and 1% penicillin-streptomycin (Gibco). All ^1H NMR spectra were recorded on a Bruker AVIII 500 MHz NMR spectrometer operated in the Fourier transform mode. Hydrodynamic size and polydispersity index of nanoparticles were measured by Zeta-PALS particle size analyzer (Brookhaven Instruments). The apparent pKa values of lipidoids were determined using 2-(p-toluidinynaphthalene-6-sulphonic acid) (TNS, Sigma-Aldrich) as fluorescent probe following the protocols reported in Heyes et al., J. Controlled Release, 2005, 107, 276-287. TEM measurements were performed on a FEI Technai Transmission Electron Microscope. Fluorescence images of tissue slices were obtained using BZ-X Analyzer fluorescence microscope.
The morphologies of LNPs were further studied by the transmission electron microscopy (TEM). […] Subsequently, the stability of LNPs thus prepared was examined by DLS and fluorescence measurements.
The morphologies of OCholB fully substituted LNPs were then examined by transmission electron microscopy (TEM). […] In contrast, the vesicular structures were not well-formed for 87-OCholB and 90-OCholB compared to their counterparts, and amorphous aggregates were observed instead.

The test system of a further data set is HeLa-DsRed cells. Put plainly: Internalization mechanism study with endocytosis inhibitors. The format is cell-based. The following applies: [lipidoid]=6.6 μg mL^−1, [(−30)GFP-Cre]=100 nM; 6 h. An excerpt:
In this context, the internalization mechanism of the (−30)GFP-Cre/LNPs complexes was studied at first, by introducing different endocytosis inhibitors, i.e., sucrose (clathrin-mediated endocytosis inhibitor), methyl-β-cyclodextrin (M-β-CD, cholesterol-depleting agent), dynasore (dynamin II inhibitor) and nystatin (caveolin-mediated endocytosis inhibitor), following our previously reported procedures. […] Comparing to other combinatorial library studies, it is clear that even loaded with same cargoes and tested against same cell line, different lipidoids with different chemical structures could be internalized through very distinct pathways. Next, the genome-editing efficiencies of (−30)GFP-Cre/LNPs were determined by flow cytometry after 24 h of incubation (with 8 h of (−30)GFP-Cre/LNPs complex exposure). Three different concentrations of protein/lipidoid complexes (25 nM/1.7 μg mL^−1, 50 nM/3.4 μg mL^−1, and 100 nM/6.6 μg mL^−1) were tested for each lipidoid nanoparticle. […] For example, the DsRed^+ cells were recorded as 10.5%/24.9%/88.9%, 13.5%/55.4%/88.8%, and 27.7%/47.8%/94.7% for (−30)GFP-Cre loaded 75-OCholB, 76-OCholB and 77-OCholB, respectively, at the protein concentration of 25, 50 and 100 nM. […] Then, the cytotoxicity profiles of (−30)GFP-Cre/LNPs, (−30)GFP-Cre/Lpf2k and naked (−30)GFP-Cre at different concentrations against HeLa-DsRed cells (8 h of exposure; (−30)GFP-Cre/LNPs=25 nM/1.7 μg mL^−1, 50 nM/3.4 μg mL^−1, and 100 nM/6.6 μg mL^−1) are measured using MTT assay after 24 h of incubation. […] For (−30)GFP-Cre/75-OCholB treated cells, the viabilities were determined to be 95.5%, 91.8% and 83.1%, at the protein concentration of 25, 50 and 100 nM, respectively; the numbers for (−30)GFP-Cre/76-OCholB and (−30)GFP-Cre/77-OCholB are 97.8%/98.2%/97.2 and 100.9%/96.6%/98.6%. […] Meanwhile, the morphology changes of HeLa-DsRed cell treated with different nanoparticle formulations were studied and the results are shown in FIG. 15E. […]

Consider `CC(C)CCCC(C)C1CCC2C3CC=C4CC(OC(=O)NCCSSCCOC(=O)CCN(C)CCN(CCN(C)CCC(=O)OCCSSCCNC(=O)OC5CCC6(C)C(=CCC7C6CCC6(C)C(C(C)CCCC(C)C)CCC76)C5)CCN(C)CCC(=O)OCCSSCCNC(=O)OC5CCC6(C)C(=CCC7C6CCC6(C)C(C(C)CCCC(C)C)CCC76)C5)CCC4(C)C3CCC12C` (centres unmarked) [Lipidoid 304-OCholB], for which the “size measured by TEM” value in data set [1] is 394.0 nm.
`CCN(CC)CCN(CCC(=O)OCCSSCCNC(=O)OC1CCC2(C)C(=CCC3C2CCC2(C)C(C(C)CCCC(C)C)CCC32)C1)CCC(=O)OCCSSCCNC(=O)OC1CCC2(C)C(=CCC3C2CCC2(C)C(C(C)CCCC(C)C)CCC32)C1` (centres unmarked) [Lipidoid 75-OCholB]: the “internalization efficiency with endocytosis inhibitors” value in the data set with HeLa-DsRed cells was “significantly suppressed by sucrose and dynasore”.
On the same count and under the same terms, then `CC(C)CCCC(C)C1CCC2C3CC=C4CC(OC(=O)NCCSSCCOC(=O)CCN(CCC(=O)OCCSSCCNC(=O)OC5CCC6(C)C(=CCC7C6CCC6(C)C(C(C)CCCC(C)C)CCC76)C5)CCC5CCCN5C)CCC4(C)C3CCC12C` (centres unmarked) [Lipidoid 77-OCholB], with “significantly suppressed by sucrose and dynasore”; and `CC(C)CCCC(C)C1CCC2C3CC=C4CC(OC(=O)NCCSSCCOC(=O)CCN(CCC(=O)OCCSSCCNC(=O)OC5CCC6(C)C(=CCC7C6CCC6(C)C(C(C)CCCC(C)C)CCC76)C5)CCN5CCCC5)CCC4(C)C3CCC12C` (centres unmarked) [Lipidoid 76-OCholB], with “significantly suppressed by sucrose and dynasore”.
As for `CCN(CC)CCCN(CCC(=O)OCCSSCCNC(=O)OC1CCC2(C)C(=CCC3C2CCC2(C)C(C(C)CCCC(C)C)CCC32)C1)CCC(=O)OCCSSCCNC(=O)OC1CCC2(C)C(=CCC3C2CCC2(C)C(C(C)CCCC(C)C)CCC32)C1` (centres unmarked) [Lipidoid 81-OCholB], in data set [1], the “size measured by TEM” value was 216.9 nm.
